Values joined by “and” are separate entries in the source; they are usually repeats but may differ in a detail not shown here. Equal values may be shown once.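 GI50 marks 50% less growth. At the TGI there is no net growth.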
Columns and labels:
Test in all cases: NCI-60 cell line screen, 384-well format
[1] = system: NCI-H23 lung
[2] = system: CAKI-1 renal
[3] = system: SR leukemia
[4] = system: UACC-62 melanoma
[5] = system: MDA-MB-435 melanoma
[6] = system: CCRF-CEM leukemia
[7] = system: SNB-19 CNS
[8] = system: SK-MEL-2 melanoma
[9] = system: A549 NSCLC
[10] = system: LOX IMVI melanoma
[11] = system: HT29 colon
[12] = system: OVCAR-4 ovarian
[13] = system: HL-60(TB) leukemia
[14] = system: SNB-75 CNS
[15] = system: EKVX NSCLC
[16] = system: RPMI-8226 leukemia
[17] = system: K-562 leukemia
[18] = system: OVCAR-3 ovarian
[19] = system: MOLT-4 leukemia
[20] = system: OVCAR-5 ovarian
[21] = system: NCI-H226 lung
[22] = system: SN12C renal
[23] = system: HOP-92 NSCLC
[24] = system: SF-295 CNS
[25] = system: ACHN renal
[26] = system: HOP-62 NSCLC
[27] = system: SK-MEL-28 melanoma
[28] = system: HCC-2998 colon
[29] = system: DU-145 prostate
[30] = system: A498 renal
[31] = system: SF-268 CNS
[32] = system: NCI-H322M lung
[33] = system: SK-OV-3 ovarian
[34] = system: UACC-257 melanoma
[35] = system: PC-3 prostate
[36] = system: OVCAR-8 ovarian
[37] = system: T-47D breast
[38] = system: MDA-MB-468 breast
[39] = system: NCI/ADR-RES ovarian
[40] = system: BT-549 breast
[41] = system: U251 glioblastoma
[42] = system: M14 melanoma
[43] = system: NCI-H522 lung
[44] = system: HS 578T breast
[45] = system: COLO 205 colon
[46] = system: KM12 colon
[47] = system: MALME-3M melanoma
[48] = system: SF-539 CNS
[49] = system: RXF 393 renal
[50] = system: 786-0 renal
[51] = system: MDA-MB-231 breast
[52] = system: HCT-15 colon
[53] = system: SK-MEL-5 melanoma
[54] = system: SW-620 colon
[55] = system: IGROV1 ovarian
[56] = system: NCI-H460 NSCLC
[57] = system: TK-10 renal
[58] = system: MCF7 breast
[59] = system: HCT-116 colon

SMILES: CC(=O)c1c(C)c2cnc(Nc3ccc(N4CCNCC4)cn3)nc2n(C2CCCC2)c1=O
- TGI [1]: 15.1 µM and > 100 µM
- GI50 [2]: 0.686 µM and 0.698 µM
- GI50 [3]: 0.428 µM and 0.198 µM
- TGI [3]: 3.83 µM and 0.634 µM
- TGI [4]: 11.4 µM and > 100 µM
- TGI [5]: 11.6 µM and > 100 µM
- GI50 [6]: 0.191 µM
- TGI [6]: 5.34 µM
- TGI [7]: 13.9 µM and > 100 µM
- GI50 [8]: 9.24 µM
- TGI [8]: 16.2 µM
- TGI [9]: 10.8 µM and > 100 µM
- GI50 [10]: 25.4 µM
- TGI [10]: > 100 µM
- TGI [11]: 12.1 µM and > 100 µM
- GI50 [12]: 11.2 µM and > 100 µM
- TGI [12]: 18.6 µM and > 100 µM
- GI50 [13]: 0.0811 µM and 0.0379 µM
- TGI [14]: 14.2 µM and > 100 µM
- TGI [15]: 15.4 µM and > 100 µM
- GI50 [16]: 0.422 µM
- TGI [16]: > 100 µM
- GI50 [17]: 2.64 µM
- TGI [17]: 9.38 µM
- TGI [18]: 16.4 µM and > 100 µM
- GI50 [19]: 0.121 µM and 0.123 µM
- TGI [19]: 5.1 µM and 4.65 µM
- TGI [20]: 12 µM and > 100 µM
- TGI [21]: 13.1 µM and > 100 µM
- TGI [22]: 13.3 µM and > 100 µM
- TGI [23]: 15 µM and > 100 µM
- TGI [24]: 13.7 µM and > 100 µM
- GI50 [25]: 0.976 µM and 3.18 µM
- TGI [26]: 13.7 µM and > 100 µM
- TGI [27]: 13 µM and > 100 µM
- TGI [28]: 10.9 µM and > 100 µM
- TGI [29]: 14.6 µM and > 100 µM
- TGI [30]: 13.1 µM and > 100 µM
- TGI [31]: 13 µM and > 100 µM
- TGI [32]: 14.5 µM and > 100 µM
- TGI [33]: 14.8 µM and > 100 µM
- TGI [34]: 13.3 µM and > 100 µM
- TGI [35]: 15.4 µM and > 100 µM
- TGI [36]: 16.4 µM and > 100 µM
- TGI [37]: 14.8 µM and > 100 µM
- TGI [38]: 10.1 µM and > 100 µM
- TGI [39]: 17.1 µM and > 100 µM
- TGI [40]: 14.3 µM and > 100 µM
- TGI [41]: 12.2 µM and > 100 µM
- TGI [42]: 11 µM and > 100 µM
- TGI [43]: 15 µM and > 100 µM
- GI50 [44]: 10.1 µM and > 100 µM
- TGI [44]: 17.2 µM and > 100 µM
- TGI [45]: 11 µM and > 100 µM
- GI50 [46]: 0.713 µM and 0.388 µM
- TGI [47]: 11.2 µM and > 100 µM
- TGI [48]: 16.7 µM and > 100 µM
- GI50 [49]: 11.4 µM and > 100 µM
- TGI [49]: 18.7 µM and > 100 µM
- TGI [50]: 10.3 µM and > 100 µM
- TGI [51]: 14.4 µM and > 100 µM

SMILES: CNC(=O)c1cc(Oc2ccc(NC(=O)Nc3cc(C(C)(C)C)nn3-c3ccc4ncccc4c3)c(F)c2)ccn1
- GI50 [1]: 0.49 µM
- TGI [1]: 1.58 µM
- GI50 [2]: 0.359 µM
- TGI [2]: > 100 µM
- GI50 [4]: 0.0328 µM
- TGI [4]: 0.612 µM
- GI50 [5]: 0.477 µM
- TGI [5]: 1.7 µM
- GI50 [6]: 1.37 µM
- TGI [6]: 2.76 µM
- GI50 [7]: 3.69 µM
- TGI [7]: > 100 µM
- GI50 [52]: 2.34 µM
- TGI [52]: 6.88 µM
- GI50 [9]: 1.18 µM
- TGI [9]: 23.2 µM
- GI50 [10]: 0.281 µM
- TGI [10]: 0.961 µM
- GI50 [11]: 0.52 µM
- TGI [11]: > 100 µM
- GI50 [53]: 0.552 µM
- TGI [53]: 1.83 µM
- GI50 [54]: 2.74 µM
- TGI [54]: 5.71 µM
- GI50 [12]: 2.18 µM
- TGI [12]: 4.99 µM
- GI50 [13]: 0.724 µM
- TGI [13]: 1.53 µM
- GI50 [55]: 0.442 µM
- TGI [55]: 7.53 µM
- GI50 [14]: 1.07 µM
- TGI [14]: 2.28 µM
- GI50 [15]: 1.49 µM
- TGI [15]: 4.28 µM
- GI50 [16]: 1.91 µM
- TGI [16]: 3.44 µM
- GI50 [56]: 1.16 µM
- TGI [56]: 4.38 µM
- TGI [17]: > 100 µM
- GI50 [18]: 2.39 µM
- TGI [18]: 5.22 µM
- GI50 [19]: 1.54 µM
- TGI [19]: 2.94 µM
- GI50 [20]: 0.884 µM
- TGI [20]: 58 µM
- GI50 [57]: 1.21 µM
- TGI [57]: 4.4 µM
- GI50 [21]: 0.109 µM
- TGI [21]: > 100 µM
- GI50 [22]: 0.679 µM
- TGI [22]: 4.18 µM
- GI50 [23]: 0.605 µM
- TGI [23]: > 100 µM
- GI50 [24]: 2.21 µM
- TGI [24]: > 100 µM
- GI50 [25]: 0.446 µM
- TGI [25]: 4.26 µM
- GI50 [26]: 1.74 µM
- TGI [26]: 3.97 µM
- GI50 [27]: 0.31 µM
- TGI [27]: 1.2 µM
- GI50 [28]: 2.14 µM
- TGI [28]: 4.73 µM
- GI50 [29]: 2.22 µM
- TGI [29]: 8.64 µM
- GI50 [30]: 2.41 µM
- TGI [30]: 9.32 µM
- GI50 [31]: 0.192 µM
- TGI [31]: 0.752 µM
- GI50 [58]: 1.59 µM
- TGI [58]: > 100 µM
- GI50 [32]: 2.58 µM
- TGI [32]: 9.5 µM
- GI50 [33]: 1.05 µM
- TGI [33]: > 100 µM
- GI50 [34]: 0.358 µM
- TGI [34]: 1.71 µM
- GI50 [35]: 3.16 µM
- TGI [35]: 9.47 µM
- GI50 [36]: 1.74 µM
- TGI [36]: 4.3 µM
- GI50 [37]: 0.853 µM
- TGI [37]: 4.82 µM
- GI50 [38]: 2.82 µM
- TGI [38]: 4.37 µM
- GI50 [39]: 2.53 µM
- TGI [39]: 6.34 µM
- GI50 [40]: 0.632 µM
- TGI [40]: 1.88 µM
- GI50 [59]: 0.937 µM
- TGI [59]: > 100 µM
- GI50 [41]: 1.93 µM
- TGI [41]: 4.95 µM
- GI50 [42]: 0.0977 µM
- TGI [42]: 1.02 µM
- GI50 [43]: 1.45 µM
- TGI [43]: 3.01 µM
- GI50 [44]: 0.547 µM
- TGI [44]: 1.64 µM
- GI50 [45]: 0.391 µM
- TGI [45]: 2.81 µM
- TGI [46]: 6.36 µM
- GI50 [47]: 0.0343 µM
- TGI [47]: 0.308 µM
- GI50 [48]: 1.4 µM
- TGI [48]: 2.73 µM
- GI50 [49]: 0.499 µM
- TGI [49]: 1.57 µM
- GI50 [50]: 1.47 µM
- TGI [50]: 5.19 µM
- GI50 [51]: 0.558 µM
- TGI [51]: > 100 µM
